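Step 1: Grow cells in 96-well plates. Step 2: Expose to compound for 48 hours at 5 concentrations. Step 3: Interpolate endpoints linearly; if unreached, use highest concentration. TGI: total growth inhibition.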
Legend:
Test in all cases: NCI-60 cell line screen, 48 h
[1] = system: MDA-MB-231 breast
[2] = system: MDA-MB-435
[3] = system: HOP-92 NSCLC
[4] = system: U251 CNS
[5] = system: HCC-2998 colon
[6] = system: SNB-19 CNS
[7] = system: LOX IMVI melanoma
[8] = system: MDA-N
[9] = system: MOLT-4 leukemia
[10] = system: SNB-75 CNS
[11] = system: SW-620 colon
[12] = system: OVCAR-5 ovarian
[13] = system: SN12C renal
[14] = system: ACHN renal
[15] = system: NCI-H460 lung
[16] = system: HL-60(TB) leukemia
[17] = system: HT29 colon
[18] = system: IGROV1 ovarian
[19] = system: 786-0 renal
[20] = system: SF-539 CNS
[21] = system: BT-549 breast
[22] = system: NCI-H522 lung
[23] = system: SK-MEL-28 melanoma
[24] = system: SK-MEL-5 melanoma
[25] = system: SF-268 CNS
[26] = system: K-562 leukemia
[27] = system: HS 578T breast
[28] = system: SF-295 CNS
[29] = system: RXF 393 renal
[30] = system: HOP-62 NSCLC
[31] = system: KM12 colon
[32] = system: SR leukemia
[33] = system: DU-145 prostate
[34] = system: UACC-62 melanoma
[35] = system: M14 melanoma
[36] = system: CAKI-1 renal
[37] = system: COLO 205 colon
[38] = system: EKVX NSCLC
[39] = system: HCT-116 colon
[40] = system: T-47D breast
[41] = system: NCI-H226 lung
[42] = system: A498 renal
[43] = system: HCT-15 colon
[44] = system: PC-3 prostate
[45] = system: OVCAR-4 ovarian
[46] = system: NCI/ADR-RES ovarian
[47] = system: SK-MEL-2 melanoma
[48] = system: TK-10 renal
[49] = system: MCF7 breast
[50] = system: UACC-257 melanoma
[51] = system: A549 NSCLC
[52] = system: MALME-3M melanoma
[53] = system: OVCAR-3 ovarian
[54] = system: SK-OV-3 ovarian
[55] = system: OVCAR-8 ovarian
[56] = system: RPMI-8226 leukemia
[57] = system: CCRF-CEM leukemia
[58] = system: UO-31 renal
[59] = system: NCI-H23 lung

Structure (SMILES): COc1ccc(CN=C2N/C(=C\c3ccccc3Cl)C(=O)N2C)cc1
- TGI [1]: 96.9 µM
- TGI [2]: 46.8 µM
- TGI [3]: 63.4 µM
- TGI [4]: 40.7 µM
- TGI [5]: 59.9 µM
- TGI [6]: > 100 µM
- TGI [7]: 43 µM
- TGI [8]: 44.5 µM
- TGI [9]: > 100 µM
- TGI [10]: 38.4 µM
- TGI [11]: 50.1 µM
- TGI [12]: > 100 µM
- TGI [13]: 39.8 µM
- TGI [14]: > 100 µM
- TGI [15]: > 100 µM
- TGI [16]: 57.9 µM
- TGI [17]: 57.2 µM
- TGI [18]: 62.6 µM
- TGI [19]: 36.1 µM
- TGI [20]: 72.7 µM
- TGI [21]: 94.8 µM
- TGI [22]: 51.1 µM
- TGI [23]: > 100 µM
- TGI [24]: 43.2 µM
- TGI [25]: > 100 µM
- TGI [26]: > 100 µM
- TGI [27]: > 100 µM
- TGI [28]: > 100 µM
- TGI [29]: > 100 µM
- TGI [30]: > 100 µM
- TGI [31]: 52.2 µM
- TGI [32]: 90 µM
- TGI [33]: > 100 µM
- TGI [34]: 37.6 µM
- TGI [35]: 36.2 µM
- TGI [36]: > 100 µM
- TGI [37]: 58.8 µM
- TGI [38]: > 100 µM
- TGI [39]: 39.3 µM
- TGI [40]: 48.8 µM
- TGI [41]: > 100 µM
- TGI [42]: 77.9 µM
- TGI [43]: > 100 µM
- TGI [44]: 96.6 µM
- TGI [45]: 86.4 µM
- TGI [46]: > 100 µM
- TGI [47]: 42.8 µM
- TGI [48]: > 100 µM
- TGI [49]: 90.2 µM
- TGI [50]: > 100 µM
- TGI [51]: > 100 µM
- TGI [52]: > 100 µM
- TGI [53]: 52.4 µM
- TGI [54]: > 100 µM
- TGI [55]: 77.4 µM

Structure (SMILES): Cc1cn(C2CC(Br)C(COC(c3ccccc3)(c3ccccc3)c3ccccc3)O2)c(=O)[nH]c1=O (configuration not stated)
- TGI [1]: 33.5 µM
- TGI [2]: 30.1 µM
- TGI [3]: 24.6 µM
- TGI [4]: 24.9 µM
- TGI [6]: 29.9 µM
- TGI [7]: 24.4 µM
- TGI [8]: 28.2 µM
- TGI [56]: 20.6 µM
- TGI [9]: 28.8 µM
- TGI [10]: 24.3 µM
- TGI [11]: 28.5 µM
- TGI [12]: 30.4 µM
- TGI [13]: 27.8 µM
- TGI [14]: 26.8 µM
- TGI [16]: > 100 µM
- TGI [57]: 24.1 µM
- TGI [17]: 23.4 µM
- TGI [18]: 27.9 µM
- TGI [19]: 27.4 µM
- TGI [20]: 31.6 µM
- TGI [21]: 24.4 µM
- TGI [22]: 19.8 µM
- TGI [23]: 30.3 µM
- TGI [24]: 25.5 µM
- TGI [25]: 28.4 µM
- TGI [26]: > 100 µM
- TGI [27]: 32.8 µM
- TGI [28]: 21.7 µM
- TGI [29]: 23.5 µM
- TGI [30]: 31 µM
- TGI [31]: 19.4 µM
- TGI [58]: 19.5 µM
- TGI [59]: 20 µM
- TGI [32]: 23.1 µM
- TGI [33]: 27.7 µM
- TGI [34]: 24.8 µM
- TGI [35]: 26.7 µM
- TGI [36]: 29.2 µM
- TGI [37]: 27.1 µM
- TGI [38]: 28.9 µM
- TGI [39]: 20.5 µM
- TGI [40]: 26.3 µM
- TGI [41]: 34.2 µM
- TGI [42]: 29.9 µM
- TGI [44]: 17.7 µM
- TGI [45]: 25.8 µM
- TGI [46]: 28.9 µM
- TGI [47]: 28.7 µM
- TGI [48]: 28 µM
- TGI [49]: 22.4 µM
- TGI [50]: 29.8 µM
- TGI [51]: 23.8 µM
- TGI [52]: 32.4 µM
- TGI [53]: 25.2 µM
- TGI [55]: 23.2 µM

Structure (SMILES): NS(=O)(=O)c1ccc(N=Nc2ncccc2O)cc1
- TGI [1]: > 100 µM
- TGI [2]: > 100 µM
- TGI [3]: > 100 µM
- TGI [4]: > 100 µM
- TGI [6]: > 100 µM
- TGI [7]: > 100 µM
- TGI [8]: > 100 µM
- TGI [56]: > 100 µM
- TGI [9]: 87.8 µM
- TGI [10]: > 100 µM
- TGI [11]: > 100 µM
- TGI [12]: > 100 µM
- TGI [13]: > 100 µM
- TGI [14]: > 100 µM
- TGI [15]: > 100 µM
- TGI [16]: > 100 µM
- TGI [17]: > 100 µM
- TGI [18]: > 100 µM
- TGI [19]: > 100 µM
- TGI [20]: > 100 µM
- TGI [21]: > 100 µM
- TGI [22]: > 100 µM
- TGI [23]: > 100 µM
- TGI [24]: > 100 µM
- TGI [25]: > 100 µM
- TGI [26]: > 100 µM
- TGI [27]: > 100 µM
- TGI [28]: > 100 µM
- TGI [29]: > 100 µM
- TGI [30]: > 100 µM
- TGI [31]: > 100 µM
- TGI [58]: > 100 µM
- TGI [59]: > 100 µM
- TGI [32]: 71.9 µM
- TGI [33]: > 100 µM
- TGI [34]: > 100 µM
- TGI [35]: > 100 µM
- TGI [36]: > 100 µM
- TGI [37]: > 100 µM
- TGI [38]: > 100 µM
- TGI [39]: > 100 µM
- TGI [40]: > 100 µM
- TGI [41]: > 100 µM
- TGI [42]: > 100 µM
- TGI [43]: > 100 µM
- TGI [44]: > 100 µM
- TGI [45]: > 100 µM
- TGI [46]: > 100 µM
- TGI [47]: > 100 µM
- TGI [48]: > 100 µM
- TGI [49]: > 100 µM
- TGI [50]: > 100 µM
- TGI [51]: > 100 µM
- TGI [52]: > 100 µM
- TGI [53]: > 100 µM
- TGI [54]: > 100 µM
- TGI [55]: > 100 µM

— PubChem BioAssay (NCI)
